Non-standard residues stand in square brackets, D forms with d. Residues, ends and D or L forms follow the SMILES beside them. NMeR = CN[C@@H](CCCNC(=N)N)C(=O)O; Nle = CCCC[C@H](N)C(=O)O
Assays:
[1] = test system: subretinal IBA-1+ mononuclear monocytes; test: Laser-induced subretinal inflammation in wildtype- and Tsp1-/- mice; type: in vivo, mouse; settings: wildtype mice, intravitreal injection at d3, quantification at d7
Method: (§1) Laser-coagulations were performed with a 532 nm ophtalmological laser mounted on an operating microscope (Vitra Laser, 532 nm, 450 mW, 50 ms, and 250 μm): Intravitreal injections of 2 μl of HTRA1 and/or TSP1 were performed using glass capillaries (Eppendorf) and a micro injector. The 2 μl injection solution contained 50 μg/ml TSP1 and HTRA1, corresponding to an intraocular concentration of 5 μg/ml of each protein assuming their dilution by approximately 1/10th in the intra-ocular volume. […] A volume of 2 μl of a 100 μM solution of either PBS, recombinant TSP1 (10 μg/ml), the 4NGG control peptide or the CD47-activating peptide PKT16 (200 μM) was injected at day 4 (when MP infiltration is maximal) and day 7 after the injury and evaluated subretinal inflammation on flatmounted RPE/choroidal flatmounts at day 10.
(§2) Eyes were enucleated, fixed in 4% PFA 30 minutes and sectioned at the limbus; the cornea and lens were discarded. […] Choroids and retinas were flatmounted and viewed with a fluorescence microscope DM5500B (Leica). IBA-1+ cells were counted on whole RPE/choroidal flatmounts and on the outer segment side of the retina. […]

[2] = test system: human monocytes; test: Monocyte/RPE co-culture, monocyte number; type: cell-based; settings: for number of PU1+ Mos, dose response: HTRA1-activated co-cultures, dose dependently
From the text: In accordance with the Declaration of Helsinki, volunteers provided written and informed consent for the human monocyte expression studies, which were approved by the Centre national d'ophthalmologic des Quinze-Vinet hospital (Paris, France) ethics committees (no. 913572). PBMCs were isolated from heparinized venous blood from healthy volunteer individuals by 1-step centrifugation on a Ficoll Paque layer (GE Healthcare) and sorted with EasySep Human Monocyte Enrichment Cocktail without CD16 Depletion Kit (StemCells Technology). Mouse peritoneal macrophages, bone marrow-derived monocytes and photoreceptor outer segment (POS) isolation (all in serum-free X-Vivo 15 medium) were performed as previously described (Sennlaub et al, EMBO Mol Med. 2013, 5:1775-1793). For co-culture experiments the mononuclear monocytes were either stained using CellTrace™ CFSE (Life Technologies®) and then washed three times or they were identified by PU1 immunohistochemistry, a MP-specific transcription factor not expressed in RPE.
(§3) Fresh pig eyes were obtained from the slaughter house 2-3 hours after enucleation. They were cleaned of surrounding tissue and immersed briefly in antiseptic solution (Pursept®). The anterior part of the eye was removed, as the lens, vitreous and vitreous. The posterior segments were washed 2 times with PBS (Phosphate Buffered Saline) and then incubated at 37° C. in the presence of 0.25% trypsin, to detach the RPE cells. After 1 h incubation, the trypsin solution was removed and the cells recovered in Dulbecco's Modified Eagle's Medium (DMEM) supplemented with 20% fetal calf serum (FCS) decomplemented and in the presence of antibiotics (1% penicillin/Streptomycin). The cells were washed several times and then incubated at 37° C. in culture dishes. Three days after the culturing, these cells were again incubated with by 0.25% trypsin, washed, and seeded into 48 wells culture plates (Grenier®) at a density of 150,000 cells/culture well (300,000 cells/[…] or 500 μL/well). Cell confluence was obtained after 4 days of incubation at 37° C. with optimum cell characteristics (squamous cells, well pigmented). To avoid the aging of these primary cell cultures, all the experiments were conducted between the 5th and 7th day after seeding the culture plates.
The culture medium of RPE cells was changed the day before the co-culture with DMEM without FCS (DMEM+1% Penicillin/Streptomycin only). Monocytes were plated onto the wells in the presence or absence of RPE cells at a concentration of 200,000 cells/culture well in a 48-well plate.
Part of co-culture well was brought into contact with 1 ng/ml of Lipopolysaccharide (LPS) from E. coli or recombinant HTRA1 (R & D, 5 μg/ml), to simulate a systemic inflammatory activation (LPS) or microenvironment similar to AMD (increase HTRA1) (see above). […]
RPE cells were permeabilized, after washing PAF 4%, with a solution of PBS-0.1% Triton-Citrate 0.1%. Nonspecific immunogenic sites were blocked with PBS-0.1% Triton-5% horse serum. After 1 hour, the blocking solution was removed and the cells were placed in presence of the with the primary antibodies (polyclonal rabbit anti-human PU.1, 1/200, LifeTechnologies; polyclonal goat anti-human OTX2, 1/500, R&D) diluted in PBS triton 0.1% and 1% horse serum and incubated at 4° C. for 12 h. After three washes with PBS, the secondary antibody coupled to a fluorochrome and diluted in PBS-0.1% Triton-1% horse serum was added along with DAPI (nuclear staining) and left for 1 hour at temperature ambient and then washed several times with PBS.
25 fields per well were analyzed Arrayscan® then the number of cells for each culture condition was counted directly by a computer protocol. All nuclei were labeled with DAPI, monocytes were marked in green 488 nm (CellTrace™ CFSE) or and RPE cells in far red 647 nm (recognition of anti-OTX2 primary antibody). […]

[3] = test system: porcine RPE; test: Monocyte/RPE co-culture, RPE cell number (OTX2+ nuclei); type: cell-based; settings: for number/survival of RPE cells in co-culture: HTRA1 5 μg/mL, OTX2 nuclear marker
Method: as §3
The culture medium of RPE cells was changed the day before the co-culture with DMEM without FCS (DMEM+1% Penicillin/Streptomycin only). Monocytes were plated onto the wells in the presence or absence of RPE cells at a concentration of 200,000 cells/culture well in a 48-well plate. […]
25 fields per well were analyzed Arrayscan® then the number of cells for each culture condition was counted directly by a computer protocol. […] For graphs where quantifications from several plates were pooled (FIGS. 4D and E) results were expressed as the percentage of the number of PU.1 or OTX2 positive cells normalized with the HTRA1 treated condition. […]

[4] = test system: recruited monocyte-derived inflammatory macrophages (recMφ); test: Thioglycollate-induced peritonitis; type: in vivo, mouse; settings: single intra-peritoneal injection at day 1, observed at day 2
Method: Mouse peritoneal exudate cells (PECs) were elicited by i.p. injection of 0,5 ml 3% thioglycollate (T9032, Sigma) into 10 weeks old male C57BL/6J and Cd47^−/− mice. After 1 day, PECs were isolated by flushing of the peritoneum with ice-cold PBS, Mφs were negatively selected by magnetic sorting following the manufacturers protocol (EasySep Mouse Monocyte Enrichment Kit, Stemcell Technologies), resuspended in X-VIVO 15 medium (Lonza), and plated in Lab-Tek® Chamber Slide™ (Nunc®).
To test whether CD47 influences inflammation resolution in other pathological contexts, a model of acute thioglycollate-induced peritonitis was used, characterized by an early accumulation of neutrophils, followed by recruited monocyte-derived inflammatory macrophages (recMφ), both experiencing an apoptosis-driven elimination at different kinetics (Gautier et al., Blood. 2013, 122:2714-2722).

[5] = test system: subretinal IBA-1+ MPs; test: Laser-injury model in Cx3cr1GFP/GFP mice; type: in vivo, mouse; settings: 2 μl intravitreal at day 4 and day 7, day 10, vs PBS or 4NGG
Method: as §1, §2

[6] = biological target: T1, HTRA1 (Homo sapiens, UniProt Q92743); test: Co-incubation of recombinant TSP1 or TSP2 with recombinant HTRA1 (Coomassie staining, Western blot); type: biochemical; settings: co-incubation at 37° C. for 24 h, Coomassie gel
T1 construct: purchased R & D
T1 sequence (Q92743 23-480): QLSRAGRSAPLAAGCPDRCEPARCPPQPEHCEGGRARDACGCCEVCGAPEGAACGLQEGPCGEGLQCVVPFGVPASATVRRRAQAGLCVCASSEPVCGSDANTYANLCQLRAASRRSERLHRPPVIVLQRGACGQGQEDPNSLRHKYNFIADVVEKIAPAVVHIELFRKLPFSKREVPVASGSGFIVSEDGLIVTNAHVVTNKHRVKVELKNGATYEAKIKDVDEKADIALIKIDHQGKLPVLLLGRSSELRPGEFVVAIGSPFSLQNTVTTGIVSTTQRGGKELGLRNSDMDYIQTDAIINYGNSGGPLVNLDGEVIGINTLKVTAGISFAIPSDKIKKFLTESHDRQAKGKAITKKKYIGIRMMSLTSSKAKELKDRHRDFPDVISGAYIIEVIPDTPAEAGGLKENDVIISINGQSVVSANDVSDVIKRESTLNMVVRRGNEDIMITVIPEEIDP
Method: WB analysis was performed using a monoclonal anti-TSP1 antibody (Abeam), as previously described (Houssier et al., PLoS Med. 2008, 5:e39). RT-PCRs primers were ordered from Taqman, reference: Hs01016151_m1.
Western blot analysis of the proteins confirmed the disappearance of the whole sized TSP1 and the appearance of several smaller bands in the co-incubated condition (FIG. 3A). […] Next the functionality of rTSP1 and HTRA1-digested TSP1 was analyzed in laser-induced subretinal inflammation in vivo. […] Accordingly, associated choroidal neovascularization, measured as the surface covered by CD102^−CNV on choroidal flatmounts at d7, underwent the same differences (FIG. 3D).

In the case of “rHTRA1: recombinant HTRA1 (R & D), high-temperature requirement A serine peptidase 1”, the “laser-induced subretinal inflammation in wildtype mice” value [1] is reported as “aggravates”, the “monocytes survival in co-culture” value ([2]; HTRA1 5 μg/mL) is reported as “significantly increased” and the “hMos number relative to control conditions” value ([2]; HTRA1 5 μg/mL added to co-culture, 24 h) is reported as 3 to 4 times. For the same compound, the “effect of HTRA1 on Mo number after heat-inactivation” value ([2]; heat-inactivated HTRA1 (not shown)) was “abolished its effect”, the “number/survival of RPE cells in co-culture” value ([3]; listed as HTRA1) was “did not influence survival” and the “number/survival of RPE cells in co-culture” value ([3]; listed as Recombinant HTRA1) was “did not diminish significantly”.

`CSCC[C@H](NC(=O)[C@@H](NC(=O)[C@@H](NC(=O)[C@H](Cc1ccc(O)cc1)NC(=O)[C@H](Cc1ccccc1)NC(=O)[C@H](CCCNC(=N)N)NC(=O)[C@H](N)CCCCN)C(C)C)C(C)C)C(=O)N[C@@H](Cc1c[nH]c2ccccc12)C(=O)N[C@@H](CCCCN)C(=O)N[C@H](CCCCN)C(=O)O` [PKHB1, (D)K-R-F-Y-V-V-M-W-K-(D)K] was tested, and the “elimination of recMφs” value [4] was “significantly accelerated the elimination”.

For “4N1K-GGGGGGGG-4N1K (KRFYVVMWKKGGGGGGGGKRFYVVMWKK) [d4N1K]”, the “Mo elimination compared with 4N1K” value ([2]; HTRA1-activated co-cultures, 0, 4, 20 and 50 μM, 48 h) was “significantly more effective”.

For `CCCC[C@H](NC(=O)[C@@H](NC(=O)[C@@H](NC(=O)[C@H](Cc1ccc(O)cc1)NC(=O)[C@H](Cc1ccccc1)NC(=O)[C@H](CCCNC(=N)N)N(C)C(=O)[C@H](N)CCCCN)C(C)C)C(C)C)C(=O)N[C@@H](Cc1c[nH]c2ccccc12)C(=O)N[C@@H](CCCCN)C(=O)N[C@H](CCCCN)C(=O)O` [PKT16, (D)K-(NMeR)-F-Y-V-V-Nle-W-K-(D)K] (H-[dK][NMeR]FYVV[Nle]WK[dK]-OH), the “elimination of subretinal IBA-1+ MPs adjacent to the laser impact” value [5] was “eliminated significantly more efficiently”, the “number of PU1+ Mos, dose response” value ([2]; 48 h) was “diminished the number of Mos” and the “CFSE+ monocytes number in HTRA1 treated co-culture” value ([2]; peptide 100 μM added directly, HTRA1 5 μg/mL, 24 h) was “completely reversed”. The “toxicity to RPE cells (number of OTX2+ nuclei)” value ([3]; HTRA1 treated co-culture with peptide) was “No toxicity”.

With “KRFYVVMWKK (4N1K peptide) [reference compound]” the “number of PU1+ Mos, dose response” value ([2]; 48 h) was “diminished the number of Mos”.

In the case of “recombinant TSP2: recombinant TSP2, contains one VVM site, resistant to HTRA1”, the “degradation by recombinant HTRA1” value [6] is reported as “no such degradation”.

Reference: patent US11142548B2, “Agents that activate CD47 and their use in the treatment of inflammation” (SORBONNE UNIVERSITE, priority 2016, dated 2021)
